The experiment deals with KRAS (G12D)/CRAF (Homo sapiens (Human), UniProt P01116, G12D). Kind of experiment: TR-FRET biochemical KRAS:CRAF protein:protein interaction assay, KRAS (G12D). Conditions: GMPPNP loaded Biotin-KRAS (G12D), FLAG CRAF RBD; read-out: TR-Fret_PPI KRAS (G12D)/CRAF IC50. Format: binding. The gist of the method: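 Compound (10-point 3-fold series, 1% DMSO final) preincubated 30 min at room temperature with 20 nM biotin-KRAS mutant loaded with GMPPNP, in Hepes pH7.3 buffer with 5 mM MgCl2 and 10 uM GMP-PNP. Then 100 nM FLAG-CRAF RBD for 150 min, 1 nM Tb-anti-FLAG/5 nM SA-XL665 for 90 min; IC50 from normalized 665/620 ratio, 4-parameter fit.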
KRAS (G12D)/CRAF, sequence (P01116-2 other isoform, or with tags, fused parts or gaps G12D): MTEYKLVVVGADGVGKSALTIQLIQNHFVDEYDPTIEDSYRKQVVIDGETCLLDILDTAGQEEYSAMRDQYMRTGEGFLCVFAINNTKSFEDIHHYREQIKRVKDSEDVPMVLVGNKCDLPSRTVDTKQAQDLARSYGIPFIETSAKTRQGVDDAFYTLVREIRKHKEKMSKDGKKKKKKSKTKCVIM
(In general: TR-FRET usually uses a lanthanide donor and a delayed reading to cut background.)

As for `[2H]C([2H])(Oc1nc(N2CCCC[C@H]3[C@H](F)[C@H]32)c2cnc(-c3cc(N)cc4cc(F)c(F)c(C#C)c34)c(F)c2n1)[C@@]12CCCN1C[C@H](F)C2` [Example 16, 5-Ethynyl-6,7-difluoro-4-(8-fluoro-4-((1S,7R,8S)-8-fluoro-2-azabicyclo[5.1.0]octan-2-yl)-2-(((2R,7aS)-2-fluorotetrahydro-1H-pyrrolizin-7a(5H)-yl)methoxy-d2)pyrido[4,3-d]pyrimidin-7-yl)naphthalen-2-amine], the IC50 was 9.98 nM.
The value for `[2H]C([2H])(Oc1nc(N2CCOC[C@H]3[C@H](F)[C@H]32)c2cnc(-c3cc(N)cc4cc(F)c(F)c(C#C)c34)c(F)c2n1)[C@@]12CCCN1C[C@H](F)C2` [Example 28, 5-Ethynyl-6,7-difluoro-4-(8-fluoro-4-((1S,7S,8S)-8-fluoro-5-oxa-2-azabicyclo[5.1.0]octan-2-yl)-2-(((2R,7aS)-2-fluorotetrahydro-1H-pyrrolizin-7a(5H)-yl)methoxy-d2)pyrido[4,3-d]pyrimidin-7-yl)naphthalen-2-amine] was 11.6 nM.
The value for `[2H]C([2H])(Oc1nc(N2CCCC[C@H]3[C@H](F)[C@H]32)c2cnc(-c3cc(N)cc4ccc(F)c(C#C)c34)c(F)c2n1)[C@@]12CCCN1C[C@H](F)C2` [Example 82, 5-Ethynyl-6-fluoro-4-(8-fluoro-4-((1S,7R,8S)-8-fluoro-2-azabicyclo[5.1.0]octan-2-yl)-2-(((2R,7aS)-2-fluorotetrahydro-1H-pyrrolizin-7a(5H)-yl)methoxy-d2)pyrido[4,3-d]pyrimidin-7-yl)naphthalen-2-amine] was 8.11 nM; that for `[2H]C([2H])(Oc1nc(N2CCOC[C@H]3[C@H](F)[C@H]32)c2cnc(-c3cc(N)cc4ccc(F)c(C#C)c34)c(F)c2n1)[C@@]12CCCN1C[C@H](F)C2` [Example 87, 5-Ethynyl-6-fluoro-4-(8-fluoro-4-((1S,7S,8S)-8-fluoro-5-oxa-2-azabicyclo[5.1.0]octan-2-yl)-2-(((2R,7aS)-2-fluorotetrahydro-1H-pyrrolizin-7a(5H)-yl)methoxy-d2)pyrido[4,3-d]pyrimidin-7-yl)naphthalen-2-amine] was 9.92 nM.

Source of the values: patent publication US20250282799A1, “SUBSTITUTED PYRIDO[4,3-d]PYRIMIDINES AS KRAS MODULATORS” (Alterome Therapeutics, Inc., priority 2023, published 2025).
